The values that follow come from patent publication US12509454B2, “Thiadiazolyl derivatives” (IDEAYA Biosciences, Inc., priority 2019, dated 2025).

This experiment deals with Pol theta (1-899) (Homo sapiens (Human), UniProt O75417). Nature of the experiment: Pol theta ATPase activity, NADH oxidation-coupled enzymatic assay. In kind it is biochemical. The settings on record: Pol theta (1-899) 10 nM, ATP, dT50 ssDNA, absorbance 340 nm, 10-point dilution series; read-out: ATPase NADH coupling:Standard Screening:hPolQ IC50. The gist of the method:
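Pol theta (1-899), 10 nM, preincubated 15 min at RT with 10-point compound series in Tris pH 7.80/KCl/MgCl2 buffer, then given 100 μM ATP plus 300 nM dT50 ssDNA with PK/LDH-coupled NADH oxidation. A340 followed for 30 min; rate slopes fitted with a four-parameter model for IC50.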

Sequence of Pol theta (1-899) (O75417 1-899): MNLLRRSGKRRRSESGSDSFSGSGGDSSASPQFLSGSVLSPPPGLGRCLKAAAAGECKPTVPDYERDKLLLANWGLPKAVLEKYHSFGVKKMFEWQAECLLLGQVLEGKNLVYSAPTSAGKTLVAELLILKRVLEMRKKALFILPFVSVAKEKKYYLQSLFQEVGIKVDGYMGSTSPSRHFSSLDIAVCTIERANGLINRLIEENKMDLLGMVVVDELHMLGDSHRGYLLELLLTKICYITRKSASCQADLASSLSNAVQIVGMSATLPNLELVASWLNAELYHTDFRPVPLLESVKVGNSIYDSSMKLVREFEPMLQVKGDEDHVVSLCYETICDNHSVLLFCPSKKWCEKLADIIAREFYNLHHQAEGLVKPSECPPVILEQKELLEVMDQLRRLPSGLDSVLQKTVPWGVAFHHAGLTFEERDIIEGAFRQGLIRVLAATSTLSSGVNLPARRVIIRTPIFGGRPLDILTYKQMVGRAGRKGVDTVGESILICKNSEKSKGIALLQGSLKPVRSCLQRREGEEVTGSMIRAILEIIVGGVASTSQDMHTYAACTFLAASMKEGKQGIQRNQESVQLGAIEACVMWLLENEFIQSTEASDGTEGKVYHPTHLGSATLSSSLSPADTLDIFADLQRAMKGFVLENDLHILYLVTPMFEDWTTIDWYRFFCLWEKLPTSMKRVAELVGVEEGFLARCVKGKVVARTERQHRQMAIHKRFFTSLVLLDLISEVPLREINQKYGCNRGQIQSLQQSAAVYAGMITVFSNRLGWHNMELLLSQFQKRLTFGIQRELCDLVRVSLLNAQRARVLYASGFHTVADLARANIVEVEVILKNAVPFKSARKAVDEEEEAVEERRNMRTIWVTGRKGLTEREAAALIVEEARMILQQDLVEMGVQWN

As for `COc1ccccc1-n1cncc1C(=O)Nc1nnc(OCc2ccc(Br)cc2)s1` [Example 86, N-(5-((4-bromobenzyl)oxy)-1,3,4-thiadiazol-2-yl)-1-(2-methoxyphenyl)-1H-imidazole-5-carboxamide], the IC50 was ≤ 0.2 µM.
On to `CNC(=O)c1cc(N2CCNC(=O)CC2)c(C(=O)Nc2nnc(OCc3ccc(Cl)cc3)s2)cn1` [Example 87, N^5-(5-((4-chlorobenzyl)oxy)-1,3,4-thiadiazol-2-yl)-N2-methyl-4-(5-oxo-1,4-diazepan-1-yl)pyridine-2,5-dicarboxamide], for which the IC50 is 0.5 to 1 µM.
For `N#Cc1ccc(C(=O)Nc2nnc(OCc3ccc(Br)cc3)s2)c(N2CCNC(=O)C2)n1` [Example 88, N-(5-((4-bromobenzyl)oxy)-1,3,4-thiadiazol-2-yl)-6-cyano-2-(3-oxopiperazin-1-yl)nicotinamide] the value was ≤ 0.2 µM; for `COc1ccccc1-c1ccncc1C(=O)Nc1nnc(OCc2ccc(Cl)cn2)s1` [Example 89, N-(5-((5-chloropyridin-2-yl)methoxy)-1,3,4-thiadiazol-2-yl)-4-(2-methoxyphenyl)nicotinamide], ≤ 0.2 µM; for `COc1ccccc1-c1ccncc1C(=O)Nc1nnc(OCC2CC2)s1` [Example 90, N-(5-(cyclopropylmethoxy)-1,3,4-thiadiazol-2-yl)-4-(2-methoxyphenyl)nicotinamide], 0.5 to 1 µM.
Turning to `COc1ccccc1-c1cc(C#N)ncc1C(=O)Nc1nnc(OCc2ccc(Cl)cc2)s1` [Example 92, N-(5-((4-chlorobenzyl)oxy)-1,3,4-thiadiazol-2-yl)-6-cyano-4-(2-methoxyphenyl)nicotinamide], the IC50 is ≤ 0.2 µM.
Turning to `O=C(Nc1nnc(OCc2ccc(Cl)cc2)s1)c1cnccc1-c1ccccc1OC1CC1` [Example 93, N-(5-((4-chlorobenzyl)oxy)-1,3,4-thiadiazol-2-yl)-4-(2-cyclopropoxyphenyl)nicotinamide], the IC50 was ≤ 0.2 µM.
As for `O=C(Nc1nnc(OCc2ccc(Cl)cc2)s1)c1cccnc1-c1ccccc1` [Example 94, N-(5-((4-chlorobenzyl)oxy)-1,3,4-thiadiazol-2-yl)-2-phenylnicotinamide], the IC50 lay in the range of 1 to 10 µM.
As for `COc1ccccc1-c1cnccc1C(=O)Nc1nnc(OCc2ccc(Cl)cc2)s1` [Example 95, N-(5-((4-chlorobenzyl)oxy)-1,3,4-thiadiazol-2-yl)-3-(2-methoxyphenyl)isonicotinamide], the IC50 was ≤ 0.2 µM.
For the compound `COc1ccccc1-c1cc(C#N)ncc1C(=O)Nc1nnc(OCc2ccc(Cl)cn2)s1` [Example 96, N-(5-((5-chloropyridin-2-yl)methoxy)-1,3,4-thiadiazol-2-yl)-6-cyano-4-(2-methoxyphenyl)nicotinamide], the IC50 was ≤ 0.2 µM.
For `COc1ccccc1-c1ccncc1C(=O)Nc1nnc(OCc2ccc(Br)cn2)s1` [Example 97, N-(5-((5-bromopyridin-2-yl)methoxy)-1,3,4-thiadiazol-2-yl)-4-(2-methoxy-phenyl)nicotinamide], the IC50 is ≤ 0.2 µM.
Regarding `O=C(Nc1nnc(OCc2ccc(Cl)cc2)s1)c1cnc(-c2ncc[nH]2)cc1N1CCOCC1` [Example 98, N-(5-((4-chlorobenzyl)oxy)-1,3,4-thiadiazol-2-yl)-6-(1H-imidazol-2-yl)-4-morpholinonicotinamide], the IC50 lay in the range of 0.5 to 1 µM.
For `COc1ccccc1-c1cnccc1C(=O)Nc1nnc(OCc2ccc(Cl)cn2)s1` [Example 99, N-[5-[(5-chloropyridin-2-yl)methoxy]-1,3,4-thiadiazol-2-yl]-3-(2-methoxyphenyl)pyridine-4-carboxamide] the value was ≤ 0.2 µM.
With `O=C(Nc1nnc(OCc2ccc(Cl)cc2)s1)c1ccncc1-c1ccccc1OC(F)F` [Example 100, N-(5-((4-chlorobenzyl)oxy)-1,3,4-thiadiazol-2-yl)-3-(2-(difluoromethoxy)phenyl)isonicotinamide], the IC50 was ≤ 0.2 µM.
In the case of `COc1ccccc1-c1cnccc1C(=O)Nc1nnc(OCc2ccc(C3CC3)nc2)s1` [Example 101, N-[5-[(6-cyclopropylpyridin-3-yl)methoxy]-1,3,4-thiadiazol-2-yl]-3-(2-methoxyphenyl)pyridine-4-carboxamide], the IC50 is ≤ 0.2 µM.
With `COc1ccccc1-c1cc(CO)ncc1C(=O)Nc1nnc(OCc2ccc(Cl)cc2)s1` [Example 102, N-(5-((4-chlorobenzyl)oxy)-1,3,4-thiadiazol-2-yl)-6-(hydroxymethyl)-4-(2-methoxyphenyl)nicotinamide], the IC50 was ≤ 0.2 µM.
As to `O=C(Nc1nnc(OCc2ccc(Cl)cc2)s1)c1ccncc1-c1cccc2nsnc12` [Example 103, 3-(benzo[c][1,2,5]thiadiazol-4-yl)-N-(5-((4-chlorobenzyl)oxy)-1,3,4-thiadiazol-2-yl)isonicotinamide], the IC50 was ≤ 0.2 µM.
On to `O=C(Nc1nnc(OCc2ccc(Cl)cn2)s1)c1cnc(CO)cc1-c1ccccc1OC(F)F` [Example 104, N-(5-((5-chloropyridin-2-yl)methoxy)-1,3,4-thiadiazol-2-yl)-4-(2-(difluoromethoxy)phenyl)-6-(hydroxymethyl)nicotinamide], for which the IC50 is ≤ 0.2 µM.
As to `COc1ccccc1-c1cc(CC#N)ncc1C(=O)Nc1nnc(OCc2ccc(Cl)cc2)s1` [Example 105, N-(5-((4-chlorobenzyl)oxy)-1,3,4-thiadiazol-2-yl)-6-(cyanomethyl)-4-(2-methoxyphenyl)nicotinamide], the IC50 was ≤ 0.2 µM.
In the case of `COc1ccccc1-c1cnncc1C(=O)Nc1nnc(OCc2ccc(Cl)cn2)s1` [Example 106, N-(5-((5-chloropyridin-2-yl)methoxy)-1,3,4-thiadiazol-2-yl)-5-(2-methoxyphenyl)pyridazine-4-carboxamide], the IC50 is ≤ 0.2 µM.
Regarding `COc1ccccc1-c1cnccc1C(=O)Nc1nnc(OCc2ccc(Cl)c3[nH]ncc23)s1` [Example 107, N-(5-((7-chloro-1H-indazol-4-yl)methoxy)-1,3,4-thiadiazol-2-yl)-3-(2-methoxyphenyl)isonicotinamide], the concentration for half-maximal inhibition (IC50) was ≤ 0.2 µM.
In the case of `N#Cc1ccc(OC(F)F)c(-c2cnccc2C(=O)Nc2nnc(OCc3ccc(Cl)cc3)s2)c1` [Example 108, N-(5-((4-chlorobenzyl)oxy)-1,3,4-thiadiazol-2-yl)-3-(5-cyano-2-(difluoromethoxy)phenyl)isonicotinamide], the IC50 was ≤ 0.2 µM.
For `O=C(Nc1nnc(OCc2ccc(Cl)cc2)s1)c1ccncc1-c1c(F)cccc1OC(F)F` [Example 109, N-(5-((4-chlorobenzyl)oxy)-1,3,4-thiadiazol-2-yl)-3-(2-(difluoromethoxy)-6-fluorophenyl)isonicotinamide], the IC50 is ≤ 0.2 µM.
For `C[C@H]1COC[C@H](C)N1c1cnccc1C(=O)Nc1nnc(OCc2ccc(Cl)cc2)s1` [Example 110, N-(5-((4-chlorobenzyl)oxy)-1,3,4-thiadiazol-2-yl)-3-((3S,5S)-3,5-dimethylmorpholino)isonicotinamide], the IC50 was ≤ 0.2 µM.
To `O=C(Nc1nnc(OCc2ccc(Cl)cc2)s1)c1ccncc1-c1cccc2ncoc12` [Example 111, 3-(benzo[d]oxazol-7-yl)-N-(5-((4-chlorobenzyl)oxy)-1,3,4-thiadiazol-2-yl)isonicotinamide] belongs ≤ 0.2 µM; to `O=C(Nc1nnc(OCc2ccc(Cl)cc2)s1)c1cnncc1-c1ccccc1OC(F)F` [Example 112, N-(5-((4-chlorobenzyl)oxy)-1,3,4-thiadiazol-2-yl)-5-(2-(difluoromethoxy)phenyl)pyridazine-4-carboxamide], ≤ 0.2 µM; to `COc1ccccc1-c1cc(C)ncc1C(=O)Nc1nnc(OCc2ccc(Cl)cn2)s1` [Example 113, N-(5-((5-chloropyridin-2-yl)methoxy)-1,3,4-thiadiazol-2-yl)-4-(2-methoxyphenyl)-6-methylnicotinamide], ≤ 0.2 µM.
`Cc1cc(-c2ccccc2OC(F)F)c(C(=O)Nc2nnc(OCc3ccc(Cl)cc3)s2)cn1` [Example 114, N-[5-[(4-chlorophenyl)methoxy]-1,3,4-thiadiazol-2-yl]-4-[2-(difluoromethoxy)phenyl]-6-methylpyridine-3-carboxamide]: the half-maximal inhibitory concentration (IC50) is ≤ 0.2 µM.
With `Cc1cc(-c2ccccc2OC(F)F)c(C(=O)Nc2nnc(OCc3ccc(Cl)cn3)s2)cn1` [Example 115, N-[5-[(5-chloropyridin-2-yl)methoxy]-1,3,4-thiadiazol-2-yl]-4-[2-(difluoromethoxy)phenyl]-6-methylpyridine-3-carboxamide], the half-maximal inhibitory concentration (IC50) is ≤ 0.2 µM.
To `COc1ccc(C#N)cc1-c1cc(C)ncc1C(=O)Nc1nnc(OCc2ccc(Cl)cc2)s1` [Example 116, N-[5-[(4-chlorophenyl)methoxy]-1,3,4-thiadiazol-2-yl]-4-(5-cyano-2-methoxyphenyl)-6-methylpyridine-3-carboxamide] belongs ≤ 0.2 µM.
As for `COc1ccc(C#N)cc1-c1cc(C)ncc1C(=O)Nc1nnc(OCc2ccc(Cl)cn2)s1` [Example 117, N-[5-[(5-chloropyridin-2-yl)methoxy]-1,3,4-thiadiazol-2-yl]-4-(5-cyano-2-methoxyphenyl)-6-methylpyridine-3-carboxamide], the IC50 is ≤ 0.2 µM.
`Cc1cn[nH]c1-c1cnccc1C(=O)Nc1nnc(OCc2ccc(Cl)cc2)s1` [Example 118, N-(5-((4-chlorobenzyl)oxy)-1,3,4-thiadiazol-2-yl)-3-(4-methyl-1H-pyrazol-5-yl)isonicotinamide]: the IC50 is 0.2 to 0.5 µM.
As to `O=C(Nc1nnc(OCc2ccc(Cl)cc2)s1)c1ccncc1-c1cccc2[nH]ncc12` [Example 119, N-(5-((4-chlorobenzyl)oxy)-1,3,4-thiadiazol-2-yl)-3-(1H-indazol-4-yl)isonicotinamide], the IC50 was ≤ 0.2 µM.
For the compound `O=C1COc2c(cccc2-c2cnccc2C(=O)Nc2nnc(OCc3ccc(Cl)cc3)s2)N1` [Example 120, N-(5-((4-chlorobenzyl)oxy)-1,3,4-thiadiazol-2-yl)-3-(3-oxo-3,4-dihydro-2H-benzo[b][1,4]oxazin-8-yl)isonicotinamide], the IC50 is ≤ 0.2 µM.

A word on the IC50: it is the midpoint of a concentration-inhibition curve.
